{"source": "paper PMC10154247", "about": "“Complex regulation in a Comamonas platform for diverse aromatic carbon metabolism” (Nature Chemical Biology, 2023)", "key": {"Mdh": {"target": "T1, Mdh (Comamonas testosteroni, UniProt A0A096F047)", "T1 construct": "gene mdh_1; C-terminal His tag, start and stop codons deleted; recombinant in E. coli BL21 (DE3), Ni-NTA", "T1 sequence (A0A096F047 2-329)": "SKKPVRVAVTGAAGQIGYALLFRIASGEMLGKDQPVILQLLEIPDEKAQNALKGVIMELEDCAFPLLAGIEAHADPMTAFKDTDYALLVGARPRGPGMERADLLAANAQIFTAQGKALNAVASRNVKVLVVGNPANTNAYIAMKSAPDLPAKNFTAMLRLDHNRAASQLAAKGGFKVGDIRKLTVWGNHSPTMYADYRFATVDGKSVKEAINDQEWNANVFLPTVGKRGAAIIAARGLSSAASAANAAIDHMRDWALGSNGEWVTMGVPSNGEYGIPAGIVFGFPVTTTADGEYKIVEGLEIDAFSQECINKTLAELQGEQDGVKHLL", "experiment": "NAD(P)H oxidation at […] nm", "format": "biochemical", "conditions": "10 mM oxaloacetate, 5 mM MgCl2, pH 7.5, 30 °C"}, "[1]": {"target": "T2, PobA (4HB 3-monooxygenase) (Comamonas testosteroni, UniProt B7WVQ9)", "T2 construct": "gene CtesDRAFT_PD2627; N-terminal His tag with TEV site, start codon removed; recombinant in E. coli BL21 (DE3), Ni-NTA", "experiment": "NAD(P)H oxidation at […] nm", "format": "biochemical", "conditions": "10 mM 4HB, 5 mM MgCl2, pH 7.5, 30 °C"}, "ME-2": {"target": "T3, ME-2 (Comamonas testosteroni, UniProt B7X1D4)", "T3 construct": "gene CtesDRAFT_PD5092", "T3 sequence (B7X1D4 2-769)": "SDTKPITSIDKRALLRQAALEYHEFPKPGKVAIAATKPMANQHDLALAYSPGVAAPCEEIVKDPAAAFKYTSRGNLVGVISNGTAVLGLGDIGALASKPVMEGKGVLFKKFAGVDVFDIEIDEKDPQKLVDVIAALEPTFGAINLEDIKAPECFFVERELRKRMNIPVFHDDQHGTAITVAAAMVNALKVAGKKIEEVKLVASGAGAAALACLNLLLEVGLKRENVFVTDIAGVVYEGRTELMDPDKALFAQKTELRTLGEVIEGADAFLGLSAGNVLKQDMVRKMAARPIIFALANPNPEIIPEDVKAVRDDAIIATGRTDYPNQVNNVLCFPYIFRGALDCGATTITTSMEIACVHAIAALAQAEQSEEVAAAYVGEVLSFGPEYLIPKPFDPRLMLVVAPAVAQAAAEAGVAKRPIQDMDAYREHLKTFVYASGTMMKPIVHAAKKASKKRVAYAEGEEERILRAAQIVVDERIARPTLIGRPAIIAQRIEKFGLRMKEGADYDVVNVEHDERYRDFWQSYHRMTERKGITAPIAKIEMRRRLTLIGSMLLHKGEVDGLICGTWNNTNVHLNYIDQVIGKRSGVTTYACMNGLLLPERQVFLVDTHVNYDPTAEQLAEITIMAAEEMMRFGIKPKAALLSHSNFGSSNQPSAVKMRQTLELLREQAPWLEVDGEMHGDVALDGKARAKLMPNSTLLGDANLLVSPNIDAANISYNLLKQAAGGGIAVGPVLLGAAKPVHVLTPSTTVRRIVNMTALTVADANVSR", "experiment": "NADH formation at […] nm", "conditions": "0.5 and 2 mM, 1 mM L-malate, 0.5 mM NAD+, 5 mM MnCl2, pH 7.5, 30 °C"}, "ME-1": {"target": "T4, ME-1 (Comamonas testosteroni, UniProt B7WXG5)", "T4 construct": "gene CtesDRAFT_PD0934", "T4 sequence (B7WXG5 2-765)": "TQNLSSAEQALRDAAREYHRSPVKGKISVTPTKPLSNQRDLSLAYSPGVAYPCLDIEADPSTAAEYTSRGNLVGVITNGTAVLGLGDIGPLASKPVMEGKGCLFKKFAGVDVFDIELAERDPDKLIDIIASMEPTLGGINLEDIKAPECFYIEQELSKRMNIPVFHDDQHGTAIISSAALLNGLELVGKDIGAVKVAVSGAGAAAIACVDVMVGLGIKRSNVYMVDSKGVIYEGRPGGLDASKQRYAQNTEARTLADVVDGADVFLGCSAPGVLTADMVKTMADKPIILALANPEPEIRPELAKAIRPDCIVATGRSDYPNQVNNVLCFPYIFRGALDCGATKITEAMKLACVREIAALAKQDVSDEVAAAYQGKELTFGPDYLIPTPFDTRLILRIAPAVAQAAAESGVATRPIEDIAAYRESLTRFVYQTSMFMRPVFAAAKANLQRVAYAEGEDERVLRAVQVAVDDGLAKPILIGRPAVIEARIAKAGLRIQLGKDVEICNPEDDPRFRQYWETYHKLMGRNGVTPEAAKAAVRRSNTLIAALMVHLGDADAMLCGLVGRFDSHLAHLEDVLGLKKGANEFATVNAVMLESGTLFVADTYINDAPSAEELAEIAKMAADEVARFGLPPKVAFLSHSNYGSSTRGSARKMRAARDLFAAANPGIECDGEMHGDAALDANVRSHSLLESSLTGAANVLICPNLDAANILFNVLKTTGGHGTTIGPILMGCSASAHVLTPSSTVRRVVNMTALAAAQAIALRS", "experiment": "NADPH formation at […] nm", "conditions": "allosteric activator, 0.5 and 2 mM; 1 mM L-malate, 0.5 mM NADP+, 5 mM MnCl2, pH 7.5, 30 °C"}, "PEPs (PEP synthase)": {"target": "T5, PEPs (PEP synthase) (Comamonas testosteroni, UniProt B7X5R8)", "T5 construct": "gene CtesDRAFT_PD3828; N-terminal His tag with TEV site, start codon removed; recombinant in E. coli BL21 (DE3), Ni-NTA", "T5 sequence (B7X5R8 2-796)": "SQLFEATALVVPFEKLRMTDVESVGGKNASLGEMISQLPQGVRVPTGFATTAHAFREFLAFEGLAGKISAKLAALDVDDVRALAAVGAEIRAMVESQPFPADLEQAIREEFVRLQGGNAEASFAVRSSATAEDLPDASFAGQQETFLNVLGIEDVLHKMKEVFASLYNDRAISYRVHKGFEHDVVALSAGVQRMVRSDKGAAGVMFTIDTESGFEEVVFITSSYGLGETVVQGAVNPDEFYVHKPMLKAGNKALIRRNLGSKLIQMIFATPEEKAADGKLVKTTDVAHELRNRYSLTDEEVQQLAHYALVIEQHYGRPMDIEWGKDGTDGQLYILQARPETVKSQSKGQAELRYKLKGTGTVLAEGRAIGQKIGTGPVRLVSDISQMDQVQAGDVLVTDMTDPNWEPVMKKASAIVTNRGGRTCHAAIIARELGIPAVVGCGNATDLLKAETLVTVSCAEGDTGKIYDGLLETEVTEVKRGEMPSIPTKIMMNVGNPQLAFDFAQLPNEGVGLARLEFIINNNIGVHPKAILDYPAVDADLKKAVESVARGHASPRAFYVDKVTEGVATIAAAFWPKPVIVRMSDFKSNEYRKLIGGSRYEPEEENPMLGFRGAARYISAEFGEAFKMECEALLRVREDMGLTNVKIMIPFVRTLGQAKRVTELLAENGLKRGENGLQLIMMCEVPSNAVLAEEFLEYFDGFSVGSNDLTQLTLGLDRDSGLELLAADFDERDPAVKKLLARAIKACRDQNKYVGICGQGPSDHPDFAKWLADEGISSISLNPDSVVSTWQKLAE", "experiment": "pyruvate consumption by HPLC-RI", "format": "biochemical", "conditions": "allosteric inhibitor, 2 or 5 mM (printed as 'up to'); 1 mM pyruvate, 1.5 mM ATP, 5 mM MgCl2, pH 7.5, 30 °C"}}, "data": [{"smiles": "NC(=O)C1=CN([C@@H]2O[C@H](COP(=O)(O)OP(=O)(O)OC[C@H]3O[C@@H](n4cnc5c(N)ncnc54)[C@H](O)[C@@H]3O)[C@@H](O)[C@H]2O)C=CC1", "note": "[NADH]", "values": [{"measurement": "NAD(P)H oxidation at 340 nm", "setting": "Mdh", "value": "NADH was the preferred cofactor for ME-2 and Mdh"}]}, {"smiles": "NC(=O)C1=CN([C@@H]2O[C@H](COP(=O)(O)OP(=O)(O)OC[C@H]3O[C@@H](n4cnc5c(N)ncnc54)[C@H](OP(=O)(O)O)[C@@H]3O)[C@@H](O)[C@H]2O)C=CC1", "note": "[NADPH]", "values": [{"measurement": "NAD(P)H oxidation at 340 nm", "setting": "[1]", "value": "NADPH was the cofactor for PobA and for ME-1, IDH1 and IDH2"}]}, {"smiles": "O=C(O)CCC(=O)O", "note": "[succinate]", "values": [{"measurement": "relative activity (%)", "setting": "ME-2; allosteric activator", "value": "moderate activation in the presence of succinate and glutamate"}, {"measurement": "relative activity (%)", "setting": "ME-1", "value": "moderate activation in the presence of succinate and glutamate"}]}, {"smiles": "O=C(O)CCC(=O)C(=O)O", "note": "[αKG]", "values": [{"measurement": "relative activity (%)", "setting": "ME-2; allosteric inhibitor", "value": "only high concentrations of αKG had a significant inhibitory impact on ME-2"}, {"measurement": "% decrease in pyruvate consumption", "setting": "PEPs (PEP synthase)", "value": "~ 35%"}]}]}
